Data: patent US20230338363A1, “COMBINATION CHEMO-IMMUNOTHERAPY FOR PANCREATIC CANCER USING THE IMMUNOGENIC EFFECTS OF AN IRINOTECAN SILICASOME NANOCARRIER PLUS ANTI-PD-1” (The Regents of the University of California, priority 2020, published 2023)

How the values were obtained:
[1] = system: PDAC; details: resected PDAC patients; p < 0.01; cited from earlier work
[2] = system: KPC cells; test: Lysosomal alkalization, LysoTracker Red DND 99 confocal microscopy; format: cell-based, mouse; details: CQ 32 µM, 24 h
Protocol: Approximately 1.5×10^4 KPC cells were seeded in µ-Slide 8 well (ibidi, 80826). To reveal the intracellular distribution of IRIN, attached KPC cells were treated with IRIN (300 µM) for 24 h. Cell membranes were stained using an Alexa Fluor® 594 conjugated WGA dye (Invitrogen™, W11262) at 2 µg/mL for 10 minutes. After washing, the cells were visualized using a Leica SP8-MD confocal microscope under the 100× objective lens. The excitation and emission wavelengths for IRIN were 405 nm and 440~490 nm, respectively^[51]
IRIN-treated KPC cells were washed and replenished with fresh media containing 100 nM DND-99 dye and 5 µg/mL Hoechst 33342 for nuclear staining. The cells were incubated at 37° C. for 0.5 h, followed by washing with phenol red free media. The cells were then visualized using a Leica SP8-MD confocal microscope under the 100× objective lens.
(§1) The of the IRIN silicasome on lysosomal alkalization was performed at drug concentrations of 75 µM and 300 µM in KPC cells. Empty silicasomes (in which a 500 µg/mL particle dose is representative of an encapsulated IRIN dose of 300 µM) was included as control. The assessment of LC3B, p62 and PD-L1 immunoblotting and IF staining were performed in KPC cells during treatment with the IRIN silicasome or empty silicasomes, as described for the free drug.

[3] = system: KPC tumor; test: Vaccination experiment with dying chemo-treated KPC cells; format: in vivo, mouse
Protocol: The vaccination schedule is highlighted in FIG. 2, panel C. Eight million KPC cells were seeded in a tissue culture dish. After cellular attachment, IRIN (300 µM or OX (500 µM were added for 24 h. Cells were collected and washed before resuspended in 0.8 mL cold PBS. For vaccination, each mouse received subcutaneous (SC) injection of a 100 µL suspension of chemo-treated cells in the right flank. Control animals received SC injection with 0.1 mL PBS. The vaccination was repeated after 7 days. Fourteen days after the 1st injection, the animals received SC injection of normal KPC cells (1 million cells in 0.1 mL PBS) in the contralateral (left) flank. Tumor growth was measured by a digital caliper every 2-3 days, and the tumor volume calculated according to the formula: length × width^2 /2. Animals were sacrificed on day 26 and the tumors were collected, weighed and fixed in 10% formalin, followed by paraffin embedding and sectioning to derive to 4 µm thick slices for IHC analysis. Primary antibodies to CD8 (#14-0808-82) and FoxP3 (#13-5773-82) were purchased from ThermoFisher. IHC staining was performed in the UCLA Translational Pathology Core Laboratory (TPCL). The slides were scanned and images assessed by using Aperio ImageScope software (Leica).

[4] = system: KPC cells; test: Autophagy (LC3B, p62) and PD-L1 expression by IF staining and immunoblotting; format: cell-based, mouse; details: IRIN 300 µM or OX 500 µM, 24 h
Protocol: KPC cells were seeded in the µ-Slide 8 well. After cell attachment, the cells were treated by IRIN at 300 µM for 24 h. Control treatments included exposure to PBS, chloroquine (32 µM), rapamycin (100 nM) and IFN-γ (10 ng/ml). Before IF staining, the cells were washed with PBS and fixed with 4% paraformaldehyde at RT for 15 minutes. Cells were treated in 1% BSA (blocking reagent) plus 0.2% triton-X100 in PBS for 30 minutes. Subsequently, the cells were incubated with primary antibody that recognizes LC3B (Cell Signaling #2775, 1:200) or p62/SQSTM1 (Cell Signaling #23214, 1:800) in 1% BSA containing PBS solution at 4° C. overnight. The sample was washed twice in PBS and further stained using an Alexa Fluor® 488 conjugated goat anti-rabbit secondary antibody (Thermo Fisher, A-11008, 1:1000) and 5 µg/mL Hoechst 33342 dye for 1 h. Cell surface staining for PD-L1 assessment was carried out in fixed (4% paraformaldehyde) cells, using a staining process similar to the above protocol. Primary PD-L1 antibody (Abcam, ab213480, 1: 500) and Alexa Fluor® 594 conjugated goat anti-rabbit secondary antibody (Thermo Fisher, A-11012, 1:1000) were used. The cells were visualized using a Leica SP8-MD confocal microscope under the 100x objective lens.
To confirm the confocal staining results for LC3B, p62 and PD-L1, western blotting experiments were performed in KPC cells exposed to IRIN (300 µM) or OX (500 µM) for 24 hr. Another experiment also looked at the dose-dependent effect of IRIN at concentrations of 75, 150, 300 and 600 µM for 24 h. Briefly, ~2×10^5 KPC cells per well were seeded in 6 well-plates. After drug exposure, KPC cells were harvested and treated with cold RIPA lysis buffer (Cell Signaling # 9806S), supplemented with a cocktail of protease and phosphatase inhibitors (Cell Signaling #5872) and incubated on ice for 30 mins. After centrifugation of the lysates at 12,000 rpm for 10 min, protein concentration was quantified by a Bradford assay (Biorad). Equal amounts of protein in the supernatants were loaded onto a 10-20% Tris-glycine SDS-PAGE gel (Invitrogen, Grand Island, NY). The proteins were subsequently transferred to a PVDF membrane. The membrane was blocked with 5% non-fat dry milk/TBST, before incubation with primary and HRP-conjugated secondary antibodies. The primary antibodies included: LC3B (Cell Signaling #2775), p62/SQSTM1 (Cell Signaling #5114), NF-κB p65 (Cell Signaling #8242), Phospho-NF-xB p65 (Cell Signaling #3033) and PD-L1 (Abcam, ab213480). The blots were developed by soaking in ECL substrate (Thermo Fisher Scientific). Densitometric analysis of each protein band on the film was quantified by ImageJ software and normalized to the intensity of a corresponding housekeeping protein.
as §1

Compound: Nc1ccn([C@@H]2O[C@H](CO)[C@@H](O)C2(F)F)c(=O)n1 [GEM, gemcitabine]
- median overall survival [1]: 35.0 months

Compound: chloroquine diphosphate salt
- alkalizing effect on lysosomal pH [2]: alkalizing effect of IRIN was duplicated

Compound: O=C1[O][Pt]2([NH][C@@H]3CCCC[C@H]3[NH]2)[O]C1=O [oxaliplatin]
- growth of tumor on the opposite flank vs PBS control ([3]; KPC cells treated with 300 µM IRIN or 500 µM OX, p <0.05): improved the shrinkage of the tumor on the opposite flank significantly
- CD8+ staining number (IHC) ([3]; harvested tumors, day 26): slight increase
- CD8+/Treg cells ratio (IHC) ([3]; harvested tumors, day 26): significantly (p <0.01) increased
- PD-L1 expression [4]: failed to upregulate PD-L1 expression
- autophagy flux (Western blotting of LC3 and p62) [4]: induced autophagy
